The source of these data is patent US20120028990A1, “3 ARYL OR HETEROARYL-SUBSTITUTED INDOLE DERIVATIVE” (MSD K.K, priority 2010, published 2012).

For this assay, the target named is T1, human QRFP receptor (GPR103) (Homo sapiens, UniProt Q96P65).
T1 construct: expressed in transfected cells; host or cells: CHO-K1 NFAT beta-lactamase (Aurora); membrane sample
T1 sequence (Q96P65 1-431): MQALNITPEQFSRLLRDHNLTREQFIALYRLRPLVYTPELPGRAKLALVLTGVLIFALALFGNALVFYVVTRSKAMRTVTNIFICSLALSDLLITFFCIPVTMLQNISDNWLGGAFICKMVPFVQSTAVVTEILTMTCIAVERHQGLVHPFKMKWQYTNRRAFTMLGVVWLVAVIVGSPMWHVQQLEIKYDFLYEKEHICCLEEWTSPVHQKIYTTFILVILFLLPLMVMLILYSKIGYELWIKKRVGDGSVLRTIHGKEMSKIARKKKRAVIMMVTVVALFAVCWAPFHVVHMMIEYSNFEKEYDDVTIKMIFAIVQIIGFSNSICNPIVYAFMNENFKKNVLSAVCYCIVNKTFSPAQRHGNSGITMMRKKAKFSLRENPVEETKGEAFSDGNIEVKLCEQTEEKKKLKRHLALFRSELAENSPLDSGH
Put plainly: QRFP43-binding inhibitory test. Particulars: inhibition of specific [125I]QRFP43 binding; membranes of CHO-K1 cells expressing GPR103; 25° C., 1 hour. The source says: A cDNA sequence [Accession No. NM_198179] coding for a human QRFP receptor (GPR103) was cloned in an expression vector pEF1V5-HisB (by Invitrogen). The resulting expression vector was transfected in a host cell CHO-K1 NFAT (3-Lactamase (by Aurora), according to a cationic lipid process [see Proceedings of the National Academy of Sciences of the United States of America, Vol. 84, p. 7413, 1987], thereby producing a QRFP receptor (GPR103).
A membrane sample prepared from the cells having expressed a QRFP receptor (GPR103) was incubated in an assay buffer (50 mM Tris-HCl, 1 mM EDTA and 0.1% BSA, pH 7.4) along with a test compound and 20,000 cpm [^125I] QRFP43 (by Perkin Elmer) therein, at 25° C. for 1 hour, and then filtered through a glass filter GF/C. After washed with 50 mM Tris-HCl (containing 2 mM EDTA, 10 mM MgCl2 and 0.04% Tween-20) buffer (pH 7.4), the radioactivity on the glass filter was determined. The non-specific binding was determined in the presence of 1 μM peptide QRFP43, and the 50% inhibitory concentration (IC50) of the test compound to the specific [^125I] QRFP43 binding was computed [see Endocrinology, Vol. 131, p. 2090, 1992].

Molecules are shown by their SMILES.

Turning to `CN1CCN(CCNC(=O)c2[nH]c3ccc(Cl)cc3c2-c2ccccc2)CC1` [Example 5, 5-chloro-N-[2-(4-methylpiperazin-1-yl)ethyl]-3-phenyl-1H-indole-2-carboxamide], the IC50 stood at 11.4 nM.
`O=C(NCCCCC(c1ccco1)N1CCCC1)c1[nH]c2ccc(Cl)cc2c1-c1ccoc1` (racemic) [Example 8, 5-chloro-3-(3-fury)-N-[5-(2-furyl)-5-pyrrolidin-1-ylpentyl]-1H-indole-2-carboxamide] came in with an IC50 of 0.58 nM.
As for `CN1CC[C@H]2C[C@H](NC(=O)c3cc4cc(Cl)ccc4n3C)CC[C@@H]2C1` (single isomer, unassigned) [Reference example 1, 5-chloro-1-methyl-N-(2-methyldecahydroisoquinolin-6-yl)-1H-indole-2-carboxamide], the figure is 22.6 nM.
As for `CN1CCN(CCNC(=O)c2[nH]c3ccc(Cl)cc3c2-c2ccsc2)CC1` [Example 2, 5-chloro-N-[2-(4-methylpiperazin-1-yl)ethyl]-3-(3-thienyl)-1H-indole-2-carboxamide], the figure is 4.71 nM.
In the case of `CN1CCN(CCNC(=O)c2[nH]c3ccc(Cl)cc3c2-c2cccs2)CC1` [Example 3, 5-chloro-N-[2-(4-methylpiperazin-1-yl)ethyl]-3-(2-thienyl)-1H-indole-2-carboxamide], the IC50 was 4.68 nM.
With `CN1CCN(CCNC(=O)c2[nH]c3ccc(Cl)cc3c2-c2ccoc2)CC1` [Example 1, 5-chloro-3-(3-fury)-N-[2-(4-methylpiperazin-1-yl)ethyl]-1H-indole-2-carboxamide], the IC50 was determined as 2.26 nM.
Consider `CN1CCN(CCNC(=O)c2[nH]c3ccc(Cl)cc3c2-c2cscn2)CC1` [Example 4, 5-chloro-N-[2-(4-methylpiperazin-1-yl)ethyl]-3-(1,3-thiazol-4-yl)-1H-indole-2-carboxamide], for which the IC50 came out at 14.2 nM.
`CN1CC[C@H]2C[C@H](NC(=O)c3[nH]c4ccc(Cl)cc4c3-c3ccoc3)CC[C@@H]2C1` (single isomer, unassigned) [Example 7, 5-chloro-3-(3-fury)-N-(2-methyldecahydroisoquinolin-6-yl)-1H-indole-2-carboxamide] had a concentration for half-maximal inhibition (IC50) of 9.82 nM.
Regarding `CNC(CCCCNC(=O)c1[nH]c2ccccc2c1-c1ccoc1)c1ccccn1` (single isomer, unassigned) [Example 9, 3-(3-fury)-N-[5-(methylamino)-5-pyridin-2-ylpentyl]-1H-indole-2-carboxamide], the half-inhibitory concentration (IC50) was determined as 1.06 nM.
`CN1CCC(CCNC(=O)c2[nH]c3ccc(Cl)cc3c2-c2ccoc2)CC1` [Example 6, 5-chloro-3-(3-fury)-N-[2-(1-methylpiperidin-4-yl)ethyl]-1H-indole-2-carboxamide] gave an IC50 of 6.24 nM.

Broadly, the IC50 is the concentration at which inhibition is half-maximal. Read a low IC50 as higher potency.
